≈ marks a conversion by molar mass, not a printed value. Where two headings read alike, the source gives them in different places.
Columns and labels:
[1] = tested on: Escherichia coli JR 66/W677; assay: Minimum inhibitory concentration, serial dilution on nutrient agar; format: cell-based; details: read-out: Minimum Inhibitory Concentrations
Experimental: (§1) The minimum inhibitory concentrations (mcg/ml.) of 1-N-(L-4-amino-2-hydroxybutyryl)-kanamycin C (abbreviated as AHB-KC), 1-N-(L-4-amino-2-hydroxybutyryl)-3'-deoxykanamycin C (abbreviated as AHB-DKC) and 1-N-(L-4-amino-2-hydroxybutyryl)-3',4'-dideoxykanamycin C (abbreviated as AHB-DDKC) against various microorganisms were determined according to serial dilution method on nutrient agar medium at 37° C., the estimation being effected after 18 hours incubation. For comparison, the minimum inhibitory concentrations of 1-N-(L-4-amino-2-hydroxybutyryl)-kanamycin A (amikacin) was also determined in the same manner as described above.

Escherichia coli NIHJ = assay: as above; format: cell-based; details: 37° C., 18 hours, read-out: Minimum Inhibitory Concentrations
Experimental: as §1

[2] = tested on: Klebsiella pneumoniae 22 No. 3038; assay: as above; format: cell-based; details: read-out: Minimum Inhibitory Concentrations
Experimental: as §1

[3] = tested on: Escherichia coli K-12 ML 1629; assay: as above; format: cell-based; details: K12ML1629, 37° C., 18 hours, read-out: Minimum Inhibitory Concentrations
Experimental: as §1

[4] = tested on: Pseudomonas aeruginosa H 11; assay: as above; format: cell-based; details: H11, 37° C., 18 hours, read-out: Minimum Inhibitory Concentrations
Experimental: as §1

[5] = tested on: Klebsiella pneumoniae PCI 602; assay: as above; format: cell-based; details: PCI602, 37° C., 18 hours, read-out: Minimum Inhibitory Concentrations
Experimental: as §1

[6] = tested on: Escherichia coli LA 290 R56; assay: as above; format: cell-based; details: LA290R56, 18 h, read-out: Minimum Inhibitory Concentrations
Experimental: as §1

[7] = tested on: Mycobacterium smegmatis ATCC 607; assay: as above; format: cell-based; details: Mycolicibacterium smegmatis, ATCC607, 37° C., 18 hours, read-out: Minimum Inhibitory Concentrations
Experimental: as §1

Escherichia coli K-12 = assay: as above; format: cell-based; details: K12, 37° C., 18 hours, read-out: Minimum Inhibitory Concentrations
Experimental: as §1

[8] = tested on: Pseudomonas aeruginosa GN 315; assay: as above; format: cell-based; details: GN315, 37° C., 18 hours, read-out: Minimum Inhibitory Concentrations
Experimental: as §1

[9] = tested on: Pseudomonas aeruginosa No. 12; assay: as above; format: cell-based; details: read-out: Minimum Inhibitory Concentrations
Experimental: as §1

Escherichia coli W 677 = assay: as above; format: cell-based; details: W677, 37° C., 18 hours, read-out: Minimum Inhibitory Concentrations
Experimental: as §1

[10] = tested on: Staphylococcus aureus FDA 209P; assay: as above; format: cell-based; details: FDA209P, 37° C., 18 hours, read-out: Minimum Inhibitory Concentrations
Experimental: as §1

[11] = tested on: Escherichia coli K-12 ML 1630; assay: as above; format: cell-based; details: K12ML1630, 37° C., 18 hours, read-out: Minimum Inhibitory Concentrations
Experimental: as §1

[12] = tested on: Pseudomonas aeruginosa A3; assay: as above; format: cell-based; details: read-out: Minimum Inhibitory Concentrations
Experimental: as §1

[13] = tested on: Pseudomonas aeruginosa TI-13; assay: as above; format: cell-based; details: read-out: Minimum Inhibitory Concentrations
Experimental: as §1

[14] = tested on: Escherichia coli LA 290 R55; assay: as above; format: cell-based; details: LA290R55, 18 h, read-out: Minimum Inhibitory Concentrations
Experimental: as §1

Escherichia coli K-12 R5 = assay: as above; format: cell-based; details: K12R5, 18 h, read-out: Minimum Inhibitory Concentrations
Experimental: as §1

[15] = tested on: Escherichia coli K-12 ML 1410; assay: as above; format: cell-based; details: K12ML1410, 37° C., 18 hours, read-out: Minimum Inhibitory Concentrations
Experimental: as §1

[16] = tested on: Escherichia coli K-12 ML 1410 R81; assay: as above; format: cell-based; details: 18 h, read-out: Minimum Inhibitory Concentrations
Experimental: as §1

[17] = tested on: Escherichia coli LA 290 R64; assay: as above; format: cell-based; details: LA290R64, 18 h, read-out: Minimum Inhibitory Concentrations
Experimental: as §1

[18] = tested on: Pseudomonas aeruginosa 99; assay: as above; format: cell-based; details: 37° C., 18 hours, read-out: Minimum Inhibitory Concentrations
Experimental: as §1

[19] = LD50 upon intravenous injection in mice; details: mouse, in vivo, estimated
[20] = tested on: resistant bacteria producing the 2"-nucleotidyltransferase; details: prior compounds; cited from earlier work
[21] = tested on: resistant bacteria producing the aminoglycoside 6'-acetyltransferase; details: cited from earlier work
[22] = tested on: resistant bacteria producing aminoglycoside 3'-phosphotransferase; details: cited from earlier work
6'-acetyltransferase = details: enzyme obtained from aminoglycoside-resistant strains, such as Pseudomonas aeruginosa GN315; cited from earlier work
[23] = JR66/W677, Escherichia coli JR 66/W677, nutrient agar, 37° C., 18 hours
[24] = Klebsiella pneumoniae 22 No. 3038, nutrient agar, 37° C., 18 hours
[25] = Pseudomonas aeruginosa No. 12, nutrient agar, 37° C., 18 hours
[26] = Pseudomonas aeruginosa A3, nutrient agar, 37° C., 18 hours
[27] = TI13, Pseudomonas aeruginosa TI-13, nutrient agar, 37° C., 18 hours

Structure (SMILES) | MIC [1, 23] [µg/mL] | MIC (Escherichia coli NIHJ) [µg/mL] | MIC [2, 24] [µg/mL] | MIC [3] [µg/mL] | MIC [4] [µg/mL] | MIC [5] [µg/mL] | MIC [6] [µg/mL] | MIC [7] [µg/mL] | MIC (Escherichia coli K-12) [µg/mL] | MIC [8] [µg/mL] | MIC [9, 25] [µg/mL] | MIC (Escherichia coli W 677) [µg/mL] | MIC [10] [µg/mL] | MIC [11] [µg/mL] | MIC [14] [µg/mL] | MIC (Escherichia coli K-12 R5) [µg/mL] | MIC [15] [µg/mL] | MIC [16] [µg/mL] | MIC [17] [µg/mL] | MIC [18] [µg/mL] | also measured
NCCC(O)C(=O)NC1CC(N)C(OC2OC(CO)C(O)CC2N)C(O)C1OC1OC(CO)C(O)C(N)C1O [AHB-DKC, 1-N-(L-4-amino-2-hydroxybutyryl)-3'-deoxykanamycin C] | 12.5 (≈ 21.9 µM) | 6.25 (≈ 11 µM) | 6.25 (≈ 11 µM) | 6.25 (≈ 11 µM) | 50 (≈ 87.8 µM) | 3.13 (≈ 5.49 µM) | 6.25 (≈ 11 µM) | 12.5 (≈ 21.9 µM) | 6.25 (≈ 11 µM) | 50 (≈ 87.8 µM) | 50 (≈ 87.8 µM) | 6.25 (≈ 11 µM) | 6.25 (≈ 11 µM) | 12.5 (≈ 21.9 µM) | 12.5 (≈ 21.9 µM) | 6.25 (≈ 11 µM) | 6.25 (≈ 11 µM) | 12.5 (≈ 21.9 µM) | 3.13 (≈ 5.49 µM) | 100 (≈ 176 µM) | MIC [12, 26]: 6.25 µg/mL (≈ 11 µM); MIC [13, 27]: 50 µg/mL (≈ 87.8 µM); LD50 [19]: > 400 mg/kg
NCCC(O)C(=O)NC1CC(N)C(OC2OC(CO)CCC2N)C(O)C1OC1OC(CO)C(O)C(N)C1O [AHB-DDKC, 1-N-(L-4-amino-2-hydroxybutyryl)-3',4'-dideoxykanamycin C] | 25 (≈ 45.2 µM) | 12.5 (≈ 22.6 µM) | 25 (≈ 45.2 µM) | 6.25 (≈ 11.3 µM) | 100 (≈ 181 µM) | 6.25 (≈ 11.3 µM) | 6.25 (≈ 11.3 µM) | 6.25 (≈ 11.3 µM) | 12.5 (≈ 22.6 µM) | 100 (≈ 181 µM) | 100 (≈ 181 µM) | 12.5 (≈ 22.6 µM) | 12.5 (≈ 22.6 µM) | 12.5 (≈ 22.6 µM) | 12.5 (≈ 22.6 µM) | 12.5 (≈ 22.6 µM) | 25 (≈ 45.2 µM) | 25 (≈ 45.2 µM) | 12.5 (≈ 22.6 µM) | 100 (≈ 181 µM) | MIC [12, 26]: 12.5 µg/mL (≈ 22.6 µM); MIC [13, 27]: 100 µg/mL (≈ 181 µM)
NCC1OC(OC2C(N)CC(N)C(OC3OC(CO)C(O)C(N)C3O)C2O)C(N)CC1O (stereo not drawn) [3'-deoxykanamycin B] | – | – | – | – | – | – | – | – | – | – | – | – | – | – | – | – | – | – | – | – | growth inhibition of resistant bacteria producing the 2"-nucleotidyltransferase [20]: do not inhibit the growth; growth inhibition of resistant bacteria producing the aminoglycoside 6'-acetyltransferase [21]: do not inhibit the growth; activity against resistant bacteria producing aminoglycoside 3'-phosphotransferase [22]: active against the resistant bacteria
NC1CC(O)C(CO)OC1OC1C(N)CC(N)C(OC2OC(CO)C(O)C(N)C2O)C1O (stereo not drawn) [3'-deoxykanamycin C] | – | – | – | – | – | – | – | – | – | – | – | – | – | – | – | – | – | – | – | – | growth inhibition of resistant bacteria producing the 2"-nucleotidyltransferase [20]: not able to inhibit the growth
NCC[C@H](O)C(=O)N[C@@H]1C[C@H](N)[C@@H](O[C@H]2O[C@H](CN)[C@@H](O)[C@H](O)[C@H]2O)[C@H](O)[C@H]1O[C@H]1O[C@H](CO)[C@@H](O)[C@H](N)[C@H]1O [Amikacin, 1-N-(L-4-amino-2-hydroxybutyryl)-kanamycin A, reference compound] | – | 0.78 (≈ 1.33 µM) | – | 0.78 (≈ 1.33 µM) | 12.5 (≈ 21.3 µM) | 0.39 (≈ 0.666 µM) | 0.39 (≈ 0.666 µM) | < 0.2 | 0.78 (≈ 1.33 µM) | 100 (≈ 171 µM) | – | < 0.2 | 0.39 (≈ 0.666 µM) | 0.78 (≈ 1.33 µM) | 0.78 (≈ 1.33 µM) | 0.39 (≈ 0.666 µM) | 0.78 (≈ 1.33 µM) | 1.56 (≈ 2.66 µM) | 0.39 (≈ 0.666 µM) | 6.25 (≈ 10.7 µM) | acetylation by a 6'-acetyltransferase (6'-acetyltransferase): acetylated; MIC ([1]; Escherichia coli, JR66/W677, 18 h): 1.56 µg/mL (≈ 2.66 µM); MIC ([2]; Klebsiella pneumoniae, 22NO.3038, 18 h): 1.56 µg/mL (≈ 2.66 µM); MIC ([9]; Pseudomonas aeruginosa, NO.12, 18 h): 3.13 µg/mL (≈ 5.34 µM); MIC ([12]; Pseudomonas aeruginosa, A3, 18 h): 3.13 µg/mL (≈ 5.34 µM); MIC ([13]; Pseudomonas aeruginosa, TI13, 18 h): 3.13 µg/mL (≈ 5.34 µM)

Reference: US4140849A, “Kanamycin C derivatives” (Zaidan Hojin Biseibutsu Kagaku Kenkyu Kai, priority 1977, dated 1979)
